# Test results from patent US20190175554A1, “METHOD FOR TREATING PRURITUS AND/OR ITCH” (Neurim Pharmaceuticals (1991) Ltd., priority 2016, published 2019).
# Values joined by “and” are separate entries in the source; they are usually repeats but may differ in a detail not shown here. Identical values can stand only once. Like-named read-outs stand apart in the source and are kept apart here.
# Experiments:
# [1] = test system: mice, formalin injected into the right hindpaw; test: Formalin test, hindpaw licking time in mice; type: in vivo, mouse; details: 100 mg/kg intraperitoneally 30 min before formalin
# Method: The anti-pruritus activity of pyrone-indole compounds were assessed using this model.
# Method. The noxious stimulus is an injection of dilute formalin under the skin of the dorsal surface of the right hindpaw. The response is the amount of time the animals spend licking the injected paw 5-10 minutes (early phase), or 20-30 minutes (late phase) after the injection of formalin. Mice (N=8 per group) were injected intraperitoneally with test compound (100 mg/kg), or morphine (4 mg/kg), or vehicle. Thirty minutes later, formalin (20 μl 2.5% in water) was injected by the subplantar route into the right hindpaw. Hindpaw licking time was recorded in consecutive 5 minute-intervals during the first 10 minutes (early phase), and from 15 to 35 minutes (late phase) after formalin injection.
# [2] = biological target: T1, TRPV1 (Homo sapiens, UniProt Q8NER1); test: TRPV1 calcium influx assay; type: cell-based; details: for inhibitory effect on TRPV1 mediated calcium influx (in words): 10 μM, significant = three or more SD from agonist mean (37.74% inhibition); for inhibition at 0.1 µM / inhibition at 0.5 µM / inhibition at 1 µM / inhibition at 5 µM / inhibition at 10 µM: read-out: Normalized % inhibition; for inhibition at 0.5 µM: Test conc 0.5 μM; for inhibition at 1 µM: Test conc 1 μM; for inhibition at 5 µM: Test conc 5 μM; for inhibition at 10 µM: Test conc 10 μM
# Method: Method. The ability of N-[2-(1H-indol-3-yl)-ethyl]-comanilamide, N-[2-(5-methoxy-indol-3-yl)-ethyl]-comanilamide and 2-methyl-4-oxo-4H-pyran-3-yl [2-(5-methoxy-1H-indol-3-yl)ethyl]carbamate to act as antagonists of TRPV1 was evaluated with a calcium influx assay. The signal elicited in the presence of the positive control agonist (0.1 μM capsaicin) was set to 100% and the signal in the presence of the antagonist (0.1 μM capsaicin+3 μM ruthenium red) was set to 0.
# [3] = biological target: T1, TRPV1; test: TRPV1 calcium influx assay; type: cell-based
# [4] = biological target: T2, hNav1.7 (Homo sapiens, UniProt Q15858); test: Block of hNav1.x channels expressed in mammalian cells, voltage protocol; type: cell-based; details: blocking effects on hNav1.x channels, Table 3
# T2 construct: expressed in transfected cells
# Method: Effects of N-[2-(1H-indol-3-yl)-ethyl]-comanilamide, N-[2-(5-methoxy-indol-3-yl)-ethyl]-comanilamide and 2-methyl-4-oxo-4H-pyran-3-yl [2-(5-methoxy-1H-indol-3-yl)ethyl]carbamate on Nav1.x Channels Expressed in Mammalian Cells
# Method. A block of hNav1.x channels was measured using the stimulus voltage pattern shown in FIG. 1; voltage potentials are indicated in Table 2, below. The pulse pattern repeated twice: before and 5 minutes after N-[2-(1H-indol-3-yl)-ethyl]-comanilamide, N-[2-(5-methoxy-indol-3-yl)-ethyl]-comanilamide and 2-methyl-4-oxo-4H-pyran-3-yl[2-(5-methoxy-1H-indol-3-yl)ethyl]carbamate addition and peak current amplitudes at […] was measured (ITP1 and ITP2).
# [5] = test system: young male subjects, UVB-irradiated skin; test: UVB sunburn model in humans, cold pain threshold (CPT); type: in vivo, human
# Method: (§1) The anti-pruritus effect of N-[2-(1H-indol-3-yl)-ethyl]-comanilamide was tested using the UVB sunburn model (R. Rolke et al. (2006), Quantitative sensory testing in the German Research Network on neuropathic pain (DFNS): standardized protocol and reference values, Pain, 123, 231-243) used as an art-accepted surrogate model of itch (Andersen et al., Acta Derm Venereol. 2015; 95(7):771-7. Human surrogate models of histaminergic and non-histaminergic itch.).
# (§2) Twenty four young male subjects ([…]N-[2-(1H-indol-3-yl)-ethyl]-comanilamide in escalated doses (300 mg-900 mg) and 6 in the placebo group), were exposed to three times the minimal erythema dose (MED) of UVB light on an approximately 4×4 cm area on the upper part of the leg in the morning of Day (−1) pre-dose on Day 1 and 2.5 hours post—dose on the UVB-irradiated area.
# (§3) UVB irradiation causes skin inflammation which is noxious and elicits pronounced inflammation related temperature and mechanical hyperalgesia at the UVB-irradiated site. This hyperalgesia peaks at about 20-24 hours post irradiation after which it slowly subsides. Quantitative sensory testing (QST) assesses characteristic sensory patterns in pain and pruritus models.
# (§4) The UVB irradiated skin was obtained by irradiating the marked area (approximately 4×4 cm) of the skin of the upper part of the right leg by three times the MED as determined during the screening. This was done approximately 20 hours prior to dosing.
# Cold pain thresholds (CPT) were determined. The mean threshold temperature of five consecutive measurements was calculated. All thresholds were obtained with ramped stimuli (1 C/s) that were terminated when the subject pressed a button.
# [6] = test system: young male subjects, UVB-irradiated skin; test: UVB sunburn model in humans, mechanical detection threshold (MDT) to von Frey hairs; type: in vivo, human; details: baseline Day (−1) before the sunburn; for MDT feel sensation, Post sunburn - Change from Baseline: pre-dose
# Method: as §1, §2, §3, §4
# Mechanical detection threshold (MDT) to von Frey hairs was assessed by using a standardized set of modified von Frey hairs (Optihair; Marstock Nervtest, Marburg, Germany) exerting forces between 0.25 and 512 mN (rounded tip, 0.5 mm in diameter). Thresholds were determined by the method of limits with the geometric mean of a series of 5 ascending and descending stimulus intensities.
# [7] = read-out: Normalized % inhibition
# [8] = Test conc 0.1 μM, vs 0.1 μM capsaicin
# T1 sequence (Q8NER1 whole entry, species assumed): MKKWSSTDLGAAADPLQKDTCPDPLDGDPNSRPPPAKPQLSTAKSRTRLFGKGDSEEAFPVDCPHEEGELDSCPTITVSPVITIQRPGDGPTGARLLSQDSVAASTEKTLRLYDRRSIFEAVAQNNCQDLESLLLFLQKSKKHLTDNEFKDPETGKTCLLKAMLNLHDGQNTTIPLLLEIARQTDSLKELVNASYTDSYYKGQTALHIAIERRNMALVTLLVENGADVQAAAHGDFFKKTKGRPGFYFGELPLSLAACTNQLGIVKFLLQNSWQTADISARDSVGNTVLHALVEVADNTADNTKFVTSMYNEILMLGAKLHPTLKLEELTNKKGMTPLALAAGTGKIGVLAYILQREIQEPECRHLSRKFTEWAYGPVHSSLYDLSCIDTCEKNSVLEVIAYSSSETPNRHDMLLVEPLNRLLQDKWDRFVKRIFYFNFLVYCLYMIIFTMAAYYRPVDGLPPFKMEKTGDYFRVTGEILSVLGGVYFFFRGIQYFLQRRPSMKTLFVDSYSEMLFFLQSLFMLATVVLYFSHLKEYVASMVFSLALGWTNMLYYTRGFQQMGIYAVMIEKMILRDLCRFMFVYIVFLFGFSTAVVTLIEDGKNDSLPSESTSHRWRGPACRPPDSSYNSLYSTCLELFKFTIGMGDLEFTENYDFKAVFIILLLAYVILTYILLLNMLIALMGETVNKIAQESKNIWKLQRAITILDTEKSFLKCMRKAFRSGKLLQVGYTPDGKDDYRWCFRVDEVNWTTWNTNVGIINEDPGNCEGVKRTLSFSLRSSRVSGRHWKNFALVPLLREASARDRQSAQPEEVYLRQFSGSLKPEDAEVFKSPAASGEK
# T2 sequence (Q15858 whole entry): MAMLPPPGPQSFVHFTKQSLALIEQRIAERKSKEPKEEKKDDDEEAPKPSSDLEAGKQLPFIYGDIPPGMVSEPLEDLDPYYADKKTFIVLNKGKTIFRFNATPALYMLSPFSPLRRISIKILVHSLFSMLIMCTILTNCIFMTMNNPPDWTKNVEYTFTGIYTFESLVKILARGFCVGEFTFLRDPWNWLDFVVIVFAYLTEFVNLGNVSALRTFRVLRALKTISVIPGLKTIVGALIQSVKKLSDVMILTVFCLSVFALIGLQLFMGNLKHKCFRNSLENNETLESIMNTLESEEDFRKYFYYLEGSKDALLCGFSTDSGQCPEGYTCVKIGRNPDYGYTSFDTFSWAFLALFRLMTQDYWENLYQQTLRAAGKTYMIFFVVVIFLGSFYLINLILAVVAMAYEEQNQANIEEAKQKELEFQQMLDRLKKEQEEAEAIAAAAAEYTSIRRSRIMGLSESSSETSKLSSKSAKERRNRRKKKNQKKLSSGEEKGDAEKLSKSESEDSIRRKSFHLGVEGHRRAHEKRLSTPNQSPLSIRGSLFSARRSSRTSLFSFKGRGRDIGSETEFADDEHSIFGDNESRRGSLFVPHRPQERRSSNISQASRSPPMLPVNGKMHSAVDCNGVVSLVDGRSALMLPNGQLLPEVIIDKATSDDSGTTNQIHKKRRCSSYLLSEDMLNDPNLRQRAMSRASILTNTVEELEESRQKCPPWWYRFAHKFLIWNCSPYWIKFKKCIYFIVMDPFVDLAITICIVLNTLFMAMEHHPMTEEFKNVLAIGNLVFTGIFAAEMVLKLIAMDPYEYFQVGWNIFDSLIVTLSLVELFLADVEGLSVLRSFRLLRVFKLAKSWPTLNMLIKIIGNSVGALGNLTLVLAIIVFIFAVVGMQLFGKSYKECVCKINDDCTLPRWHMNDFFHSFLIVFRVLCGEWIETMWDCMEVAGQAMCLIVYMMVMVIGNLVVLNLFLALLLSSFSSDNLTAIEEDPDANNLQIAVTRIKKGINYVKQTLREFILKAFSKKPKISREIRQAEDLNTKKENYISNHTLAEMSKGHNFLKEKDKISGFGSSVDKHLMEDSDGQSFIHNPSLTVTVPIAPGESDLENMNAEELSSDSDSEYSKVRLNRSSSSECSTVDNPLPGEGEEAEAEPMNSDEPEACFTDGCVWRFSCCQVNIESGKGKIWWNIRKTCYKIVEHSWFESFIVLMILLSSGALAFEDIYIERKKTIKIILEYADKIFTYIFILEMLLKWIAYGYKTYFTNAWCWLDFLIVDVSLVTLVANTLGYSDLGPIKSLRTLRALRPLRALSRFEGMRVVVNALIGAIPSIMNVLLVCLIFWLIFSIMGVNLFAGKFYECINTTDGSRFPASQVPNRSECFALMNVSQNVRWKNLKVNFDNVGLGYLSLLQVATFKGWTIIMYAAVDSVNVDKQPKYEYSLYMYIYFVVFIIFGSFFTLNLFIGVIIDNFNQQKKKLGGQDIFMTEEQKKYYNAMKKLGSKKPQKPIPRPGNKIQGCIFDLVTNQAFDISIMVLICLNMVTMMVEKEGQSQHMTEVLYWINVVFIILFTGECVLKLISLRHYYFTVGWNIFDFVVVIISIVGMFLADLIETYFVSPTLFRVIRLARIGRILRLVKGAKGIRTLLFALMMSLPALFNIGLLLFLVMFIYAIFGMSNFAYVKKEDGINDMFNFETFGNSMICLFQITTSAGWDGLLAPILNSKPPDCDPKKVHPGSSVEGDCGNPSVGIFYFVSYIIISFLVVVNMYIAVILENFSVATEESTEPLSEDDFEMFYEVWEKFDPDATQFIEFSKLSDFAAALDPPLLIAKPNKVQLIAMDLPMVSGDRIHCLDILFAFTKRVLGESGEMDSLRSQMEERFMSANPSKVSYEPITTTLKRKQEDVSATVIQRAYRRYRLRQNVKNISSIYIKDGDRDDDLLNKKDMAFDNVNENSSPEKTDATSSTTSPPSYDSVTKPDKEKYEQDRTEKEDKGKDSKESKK
SMILES,inhibitory effect on TRPV1 mediated calcium influx (in words) [2],Normalized % Activation ([3]; Test conc 0.1 μM) [%],Normalized % Activation ([3]; Test conc 0.5 μM) [%],Normalized % Activation ([3]; Test conc 1 μM) [%],Normalized % Activation ([3]; Test conc 5 μM) [%],Normalized % Activation ([3]; Test conc 10 μM) [%],"inhibition at 0.1 µM [2, 8] [%]",inhibition at 0.5 µM ([2]; vs 0.1 μM capsaicin) [%],inhibition at 1 µM ([2]; vs 0.1 μM capsaicin) [%],inhibition at 5 µM ([2]; vs 0.1 μM capsaicin) [%],inhibition at 10 µM ([2]; vs 0.1 μM capsaicin) [%],further results
COc1ccc2[nH]cc(CCNC(=O)Oc3c(C)occc3=O)c2c1 [2-methyl-4-oxo-4H-pyran-3-yl [2-(5-methoxy-1H-indol-3-yl)ethyl]carbamate],significant inhibitory effect,12.65,9.58,12.16,5.75,12.26,–,–,–,–,–,"inhibition of the licking response, early phase [1]: 54%; inhibition of the licking response, late phase [1]: 86%; inhibition at 0.1 µM [2]: -1.78%; inhibition at 0.5 µM [3, 7]: 23.6%; inhibition at 1 µM [3, 7]: 45.1%; inhibition at 5 µM [3, 7]: 44.6%; inhibition at 10 µM [3, 7]: 41.5%"
O=C(NCCc1c[nH]c2ccccc12)c1cc(=O)cco1 [N-[2-(1H-indol-3-yl)-ethyl]-comanilamide],significant inhibitory effect,23.07,11.93,10.51,8.71,10.13,9.88,2.44,31.1,26.1,37.7,"inhibition of the licking response, early phase ([1]; 100 mg/kg): 57% and 38%; inhibition of the licking response, late phase ([1]; 100 mg/kg): 90% and 62%; selectivity among hNav1.x channels (in words) [4]: preferential inhibition of Nav1.7 channels; CPT, Post sunburn ([5]; 600 mg group, after UVB, pre-dose): 16.03 °C; CPT, Pre sunburn ([5]; 600 mg group, before UVB and before dosing): 5.55 °C; CPT, 2.5 h Post Drug Administration ([5]; 600 mg, 2.5 h post dose): 12.75 °C; time of peak response post dosing ([5]; human UVB sunburn model, analgesic/anti-pruritus effects): 2.5 h; MDT feel sensation, Post sunburn - Change from Baseline ([6]; 300 mg group): −10.92 mN; MDT feel sensation, 2.5 h post Drug administration - Change from Baseline ([6]; 300 mg): −12.13 mN; MDT feel sensation, Post sunburn - Change from Baseline ([6]; 600 mg group): −3.52 mN; MDT feel sensation, 2.5 h post Drug administration - Change from Baseline ([6]; 600 mg): −0.017 mN; MDT feel sensation, Post sunburn - Change from Baseline ([6]; 900 mg group): −7.24 mN; MDT feel sensation, 2.5 h post Drug administration - Change from Baseline ([6]; 900 mg): 0.84 mN"
COc1ccc2[nH]cc(CCNC(=O)c3cc(=O)cco3)c2c1 [N-[2-(5-methoxy-indol-3-yl)-ethyl]-comanilamide],significant inhibitory effect,18.12,11.95,14.04,12.92,13.67,15.2,1.19,36.4,35.4,42.6,–
